≈ marks a conversion by molar mass, not a printed value.
Assays:
[1] = test system: Staphylococcus aureus (ATCC 43300); assay: Antibacterial MIC, broth microdilution (CLSI); type: cell-based; settings: for S. aureus Selectivity Indices, Group: Alkyl Amidines and NH Pyrroles; for MIC80: Staphylococcus aureus, ATCC43300, read-out: MIC80 S. aureus
[2] = test system: Enterococcus faecalis (ATCC 51299); assay: Antibacterial MIC, broth microdilution (CLSI); type: cell-based; settings: for MIC80: Enterococcus faecalis, ATCC51299, read-out: MIC80 E. faecalis; for E. faecalis Selectivity Indices, Group / E. faecalis Selectivity Index (SI): SI, IC50 (μM)/MIC80 (μM), HEK293 cytotoxicity; for E. faecalis Selectivity Indices, Group: Alkyl Amidines and NH Pyrroles; for E. faecalis Selectivity Index (SI): numeric value
[3] = test system: Escherichia coli (ATCC 25922); assay: Antibacterial MIC, broth microdilution (CLSI); type: cell-based; settings: Escherichia coli, ATCC25922; read-out: MIC80 E. coli
[4] = test system: Human rhinovirus (HRV-14); assay: Viral ToxGlo assay, Hela Ohio cells; type: cell-based; settings: M-HeLa, 72 h
[5] = test system: human respiratory syncytial virus (RSV A2); assay: Viral ToxGlo assay, Hep-2 cells; type: cell-based; settings: 72 h
[6] = test system: Influenza (H1N1); assay: Accelerated Viral Neuraminidase Inhibition Assay (AVINA), A549 cells; type: cell-based; settings: Influenza A virus, 72 h
[7] = test system: Genomic double stranded DNA (salmon); assay: Fluorescence intercalator displacement (FID) assay, SYBR-safe probe; settings: 20 μM compound, 30° C., lower % = stronger binding
Method in brief: (§1)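 Probe displacement was measured at 30 °C in 1 mM phosphate pH 7.4 containing SybrSafe (12500-fold dilution), 3.76 ng/mL nucleic acid (salmon dsDNA or polyAU dsRNA) and 20 μM compound. Fluorescence loss is normalised between probe-only and probe-plus-nucleic-acid controls.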

[8] = test system: PolyAU double stranded RNA; assay: as above; settings: 20 μM compound, 30° C., lower % = stronger binding
Method in brief: as §1

[9] = test system: C. neoformans (F10025); settings: Cryptococcus neoformans, read-out: MIC99 C. neoformans
[10] = test system: A. fumigatus A1160 (MFIG001); settings: Aspergillus fumigatus, read-out: MIC99 A. fumigatus A1160
[11] = test system: Rhizopus arrhizus (NEQAS12.35321); settings: read-out: MIC99 Rhizopus arrhizus
Procedure: The Minimum Inhibitory Concentration (MIC, at 99% inhibition) of the compounds was determined using the broth microdilution method as recommended by EUCAST (EUCAST Definitive Document E.DEF 9.3.2, Method for the determination of broth dilution minimum inhibitory concentrations of antifungal agents for conidia forming moulds and EUCAST Definitive Document E.DEF 7.3.2 Method for the determination of broth dilution minimum inhibitory concentrations of antifungal agents for yeasts).

[12] = test system: Candida auris (H.17.157); settings: for MIC99: Candidozyma auris, read-out: MIC99 Candida auris; for C. auris Selectivity Indices, Group: SI, IC50 (μM)/MIC99 (μg/mL), HEK293 cytotoxicity, Alkyl Amidines and NH Pyrroles
[13] = test system: Candida glabrata (ACPF3309); settings: for MIC99: Nakaseomyces glabratus, read-out: MIC99 Candida glabrata; for C. glabrata Selectivity Indices, Group: Alkyl Amidines and NH Pyrroles
[14] = test system: T. equiperdum; assay: Resazurin-based (Alamar blue) drug sensitivity assay; settings: Trypanosoma equiperdum, read-out: IC50 T. equiperdum
Procedure: (§2) A detailed description of the procedure for evaluating activity against trypanosomes, using an Alamar Blue (resazurin) assay, is described below.
(§3) The bloodstream form (BSF) T. b. brucei s427 (see De Koning, H. P. et al., Mol. Biochem. Parasitol. 2000, 106, 181-185), T. evansi AntTat 3/3 (see Dean, S. et al., Proc. Natl. Acad. Sci. USA, 2013, 110, 14741-14746), and T. equiperdum (see Stewart, M. L. et al., Eukaryot. Cell, 2010, 9, 336-343) were cultured in HMI-9 medium (Life Technologies, Paisley, United Kingdom) supplemented with 10% heat inactivated Foetal Bovine Serum (FBS (PAA Laboratories Linz, Austria)), 14 μL/L β-mercaptoethanol (BDH, Dorset, UK), and 3.0 g/L NaHCO3 (Sigma-Aldrich) and adjusted to pH 7.4. These cell lines were maintained at 37° C. in a humidified, 5% CO2 environment.
(§4) A resazurin-based (Alamar blue) drug sensitivity assay was used to assess and compare the activity of standard trypanocides in the different cell lines investigated (see Gould, M. K. et al., Anal. Biochem., 2008, 382, 87-93). Briefly, 23 doubling dilutions of the test compound of the invention, starting at 100 μM, and a compound-free control were prepared in 100 μL medium in a 96-well white plate (Greiner Bio-one, Frickenhausen, Germany). The cells were adjusted to 2×10^4 cells/mL for T. b. brucei and T. equiperdum; 4×10^4 cells/mL for T. evansi; and 5×10^5 cells/mL for T. congolense in the appropriate medium. 100 μL of the adjusted cells was then added to the wells containing drug dilutions and incubated for 48 h under respective culture condition. Thereafter, 20 μL of 125 mg/mL resazurin sodium dye was added, and the plate was incubated for a further 24 h.

[15] = test system: T. evansi AntTat 3/3; assay: as above; settings: read-out: IC50 T. evansi
Procedure: as §2, §3, §4

[16] = test system: T. vaginalis; assay: Trichomonas resorufin assay; type: cell-based; settings: for IC50: Trichomonas vaginalis, read-out: IC50 T. vaginalis; for T. vaginalis Selectivity Indices, Group / T. vaginalis Selectivity Index (SI): SI, IC50 (μM)/IC50 (μM), HEK293 cytotoxicity; for T. vaginalis Selectivity Indices, Group: Alkyl Amidines and NH Pyrroles; for T. vaginalis Selectivity Index (SI): numeric value
[17] = test system: SARS-CoV-2 (hCoV-19/Australia/VIC01/2020); assay: SARS-CoV-2 microplaque inhibition assay in Vero-E6 cells; type: cell-based; settings: Severe acute respiratory syndrome coronavirus 2, Vero C1008; plaque inhibition, Vero-E6 cells; read-out: IC50 SARS-CoV-2
[18] = SI, IC50 (μM)/MIC80 (μM), HEK293 cytotoxicity
[19] = SI, IC50 (μM)/MIC99 (μg/mL), HEK293 cytotoxicity

| Compound | S. aureus Selectivity Indices, Group [1, 18] | MIC80 [1] [µM] | MIC80 [2] [µM] | MIC80 [3] [µM] | inhibition at 20 µM [4] [%] | inhibition at 20 µM [5] [%] | inhibition at 20 µM [6] [%] | % Normalised Fluorescence with gDNA [7] [%] | % Normalised Fluorescence with polyAU RNA [8] [%] | MIC99 [9] [µg/mL] | MIC99 [10] [µg/mL] | MIC99 [11] [µg/mL] | MIC99 [12] [µg/mL] | MIC99 [13] [µg/mL] | IC50 [14] [nM] | IC50 [15] [nM] | E. faecalis Selectivity Indices, Group [2] | E. faecalis Selectivity Index (SI) [2] | IC50 [16] [nM] | T. vaginalis Selectivity Indices, Group [16] | also measured |
| --- | --- | --- | --- | --- | --- | --- | --- | --- | --- | --- | --- | --- | --- | --- | --- | --- | --- | --- | --- | --- | --- |
| Cn1cc(NC(=O)c2ccc(/C=C/c3ccc4nonc4c3)cc2)cc1C(=O)Nc1c[nH]c(C(=O)NCCC(=N)N)c1 [IIIa3, (E)-N-(5-((3-amino-3-iminopropyl)carbamoyl)-1H-pyrrol-3-yl)-4-(4-(2-(benzo[c][1,2,5]oxadiazol-5-yl)vinyl)benzamido)-1-methyl-1H-pyrrole-2-carboxamide] | B (Group B: 3 < SI <= 5) | 5 to 25 (≈ 2.83 to 14.1 µg/mL) | 5 to 25 (≈ 2.83 to 14.1 µg/mL) | > 100 | 25 to 50 | > 50 | > 50 | 27 | 3 | < 5 | 5 to 25 (≈ 8.84 to 44.2 µM) | > 50 | > 50 | < 5 | 10 to 100 | 10 to 100 | – | – | – | – | C. glabrata Selectivity Indices, Group [13, 19]: B (Group B: 12 < SI <= 20) |
| N=C(N)CCNC(=O)c1cc(NC(=O)c2cc(NC(=O)c3ccc(/C=C/c4cnc5ccccc5c4)cc3)c[nH]2)c[nH]1 [IIIa6, (E)-N-(3-amino-3-iminopropyl)-4-(4-(4-(2-(quinolin-3-yl)vinyl)benzamido)-1H-pyrrole-2-carboxamido)-1H-pyrrole-2-carboxamide] | D (D: SI > 10) | < 5 | < 5 | 25 to 100 (≈ 14 to 56.1 µg/mL) | > 50 | > 50 | > 50 | 18 | 29 | < 5 | 5 to 25 (≈ 8.92 to 44.6 µM) | 25 to 50 (≈ 44.6 to 89.2 µM) | 5 to 25 (≈ 8.92 to 44.6 µM) | < 5 | < 10 | 10 to 100 | D (D: SI > 10) | 14 | – | – | S. aureus Selectivity Index (SI) ([1]; SI, IC50 (μM)/MIC80 (μM), HEK293 cytotoxicity, numeric value): 14; C. auris Selectivity Indices, Group [12]: D (Group D SI > 3); C. glabrata Selectivity Indices, Group [13, 19]: D (Group D: SI > 50); C. glabrata Selectivity Index (SI) ([13]; SI, IC50 (μM)/MIC99 (μg/mL), HEK293 cytotoxicity, numeric value): 109 |
| CC(C)=CCC/C(C)=C/CNC(=O)c1cc(NC(=O)c2cc(NC(=O)c3ccc(/C=C/c4cnc5ccccc5c4)cc3)cn2C)cn1C [IVa10, N—((E)-3,7-dimethylocta-2,6-dien-1-yl)-1-methyl-4-(1-methyl-4-(4-((E)-2-(quinolin-3-yl)vinyl)benzamido)-1H-pyrrole-2-carboxamido)-1H-pyrrole-2-carboxamide] | – | 5 to 25 (≈ 3.27 to 16.4 µg/mL) | 25 to 100 (≈ 16.4 to 65.5 µg/mL) | > 100 | > 50 | > 50 | 10 to 25 | – | – | > 50 | 25 to 50 (≈ 38.2 to 76.4 µM) | – | – | 5 to 25 (≈ 7.64 to 38.2 µM) | – | – | – | – | 5000 to 50000 | – | – |
| CC/N=C(\N)CCNC(=O)c1cc(NC(=O)c2cc(NC(=O)c3ccc(/C=C/c4ccc5nonc5c4)cc3)cn2C)cn1C [Ia12, N—((Z)-3-amino-3-(ethylimino)propyl)-4-(4-(4-((E)-2-(benzo[c][1,2,5]oxadiazol-5-yl)vinyl)benzamido)-1-methyl-1H-pyrrole-2-carboxamido)-1-methyl-1H-pyrrole-2-carboxamide] | C (Group C: 5 < SI <= 10) | 5 to 25 (≈ 3.04 to 15.2 µg/mL) | < 5 | > 100 | 10 to 25 | > 50 | > 50 | 2 | 2 | 5 to 25 (≈ 8.23 to 41.1 µM) | > 50 | – | – | 5 to 25 (≈ 8.23 to 41.1 µM) | 100 to 1000 | 100 to 1000 | D (D: SI > 10) | 23 | 1000 to 5000 | B (Group B: 8 < SI <= 16) | IC50 [17]: 8000 to 32000 nM |
| CC(C)/N=C(\N)CCNC(=O)c1cc(NC(=O)c2cc(NC(=O)c3ccc(/C=C/c4ccc5nonc5c4)cc3)cn2C)cn1C [Ia13, N—((Z)-3-amino-3-(isopropylimino)propyl)-4-(4-(4-((E)-2-(benzo[c][1,2,5]oxadiazol-5-yl)vinyl)benzamido)-1-methyl-1H-pyrrole-2-carboxamido)-1-methyl-1H-pyrrole-2-carboxamide] | C (Group C: 5 < SI <= 10) | 5 to 25 (≈ 3.11 to 15.5 µg/mL) | < 5 | > 100 | 25 to 50 | > 50 | > 50 | 2 | 3 | 5 to 25 (≈ 8.04 to 40.2 µM) | > 50 | – | – | 25 to 50 (≈ 40.2 to 80.4 µM) | – | – | D (D: SI > 10) | 12 | 1000 to 5000 | C (Group C: 16 < SI <= 32) | T. vaginalis Selectivity Index (SI) [16]: 17; IC50 [17]: 8000 to 32000 nM |
| CC(C)NC(=N)CCNC(=O)c1cc(NC(=O)c2cc(NC(=O)c3ccc(/C=C/c4cnc5ccccc5c4)cc3)cn2C)cn1C [Ia21, (E)-N-(3-imino-3-(isopropylamino)propyl)-1-methyl-4-(1-methyl-4-(4-(2-(quinolin-3-yl)vinyl)benzamido)-1H-pyrrole-2-carboxamido)-1H-pyrrole-2-carboxamide] | – | < 5 | < 5 | > 100 | > 50 | 25 to 50 | 25 to 50 | 3 | 2 | > 50 | 5 to 25 (≈ 7.93 to 39.6 µM) | 5 to 25 (≈ 7.93 to 39.6 µM) | 25 to 50 (≈ 39.6 to 79.3 µM) | < 5 | – | – | – | – | < 1000 | D (Group D: SI > 32) | T. vaginalis Selectivity Index (SI) [16]: 41; C. auris Selectivity Indices, Group [12]: B (Group B: 0.4 < SI <= 1) |

From patent publication US20250313546A1, “NUCLEIC ACID BINDERS” (UNIVERSITY OF STRATHCLYDE, priority 2022, published 2025)
